Results taken from patent publication US20100227907A1, “Method of Treating Pain by Using Opioids and CAMKIV Inhibitors” (priority 2005, published 2010).

Columns and labels:
mouse CaMKIV = assay: siRNA knock-down of CaMKIV expression in cultured cortical neurons (western blot); type: cell-based; settings: 30 nM siRNA, 48 h after transfection, n=3 experiments
Description: Cortical neurons were prepared from postnatal day 0 (P0) mice. All procedures were reviewed and approved by the Institutional Animal Care and Use Committee at University of Toronto, in accordance with the guidelines of the Canadian Council on Animal Care. The Cerebral cortexes were dissected, minced, and trypsinized for 15 min using 0.125% trypsin (Invitrogen, CA). Cells were seeded at the density of 4˜5×10^5 cells/cm^2 onto 60 mm dishes or 96-well plates precoated with 50 μg/ml poly-D-lysine (Sigma, Mo.) in water, and grown in Neurobasal-A medium (Invitrogen, CA) supplemented with B27 and GlutaMax (Invitrogen, CA). The cultures were incubated at 37° C. in 95% air, 5% carbon dioxide with 95% humidity.
sequence 1: sense 5′-[…]tt-3′, antisense 5′-[…]tt-3′ and sequence 2: sense 5′-[…]tt-3′, antisense 5′-[…]tt-3′, respectively (Ambion, Tex.). The annealed siRNA was reconstituted at the concentration of 100 μM for transfection. […] Cells were harvested and analyzed 48 h after transfection.
The cultured cortical neurons were harvested and homogenized in lysis buffer containing proteinase inhibitor cocktail (Sigma, Mo.). Protein was quantified by Bradford assay, and electrophoresis of equal amounts of total protein was performed on SDS-polyacrylamide gels. […] The density of immunoblots was measured using NIH ImageJ software.

[1] = biological target: T1, CaMKIV transiently expressed in HEK293 cells (Homo sapiens, UniProt Q16566); assay: CREB luciferase reporter assay of CaMKIV activity in ionomycin-treated HEK293 cells transiently expressing CaMKIV; type: cell-based; settings: 5 μM ionomycin, n=4 wells; for CREB activity, % of the control level: HEK293 expressing CaMKIV; for IC50: HEK293 transiently expressing CaMKIV, read-out: IC50 for inhibition of CaMKIV (CREB activity)
T1 construct: expressed in transfected cells; host or cells: HEK293
T1 sequence (Q16566 1-473): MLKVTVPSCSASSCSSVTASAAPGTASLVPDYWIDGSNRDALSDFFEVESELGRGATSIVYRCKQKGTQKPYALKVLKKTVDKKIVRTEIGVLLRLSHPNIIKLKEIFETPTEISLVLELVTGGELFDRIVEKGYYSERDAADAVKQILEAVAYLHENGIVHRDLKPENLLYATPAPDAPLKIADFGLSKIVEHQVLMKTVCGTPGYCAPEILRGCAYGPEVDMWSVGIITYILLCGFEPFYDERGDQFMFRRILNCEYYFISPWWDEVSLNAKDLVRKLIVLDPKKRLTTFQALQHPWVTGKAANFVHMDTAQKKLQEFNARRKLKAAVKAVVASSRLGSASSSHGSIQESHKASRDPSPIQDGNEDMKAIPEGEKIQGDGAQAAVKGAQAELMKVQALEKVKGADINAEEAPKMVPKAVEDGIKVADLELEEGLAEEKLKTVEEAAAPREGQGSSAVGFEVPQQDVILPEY
Description: (§1) HEK293 cells were seeded into 96-well plates. The next day, cells were cotransfected with the CaMKIV construct, pGL3-CRE-firefly luciferase and pGL3-CMV-Renilla luciferase constructs using Lipofectamine 2000 reagent (Invitrogen, CA) according to the manufacturer's recommendation. The following day, cells were treated with fresh medium containing DMSO as vehicle control or 5 μM ionomycin (Sigma, Mo.) in the presence or absence of KN62 or KN93 (Sigma, MO) at serial concentrations. Cells were harvested 16 h later. Luciferase activity was assayed with cell lysis by using the dual-luciferase reporter assay system (Promega, WI) according to the manufacturer's protocol.
(§2) The dose-dependent inhibitory effect of KN62 and KN93 on CaMKIV transiently expressed in HEK293 cells was determined. CaMKIV can activate CREB and stimulate CREB-mediated transcription through the direct phosphorylation of CREB on Ser-133. To measure the CaMKIV activity by CREB activity assay, the CaMKIV expression plasmids and a CREB luciferase reporter system were cotransfected into HEK293 cells in this study. The calcium ionophore ionomycin treatment can lead to an increase in intracellular Ca^2+ and Ca^2+/CaM levels, which influence CaMKIV activity in cells. Ionomycin (5 μM) can dramatically increase CREB activity in HEK293 cells expressing CaMKIV. The CREB activity is 5.5±0.2 times that of unstimulated cells (p<0.0001, compared to the unstimulated cells, n=4 wells, FIG. 8A).

[2] = test system: pCREB expression in the spinal cord; assay: pCREB expression in spinal cord after chronic morphine (western blot); type: in vivo, mouse; settings: chronic morphine 10 mg/kg s.c. daily for seven days
Description: Open field locomotor activity was recorded for 1 hr after injection followed by determination of hot plate and tail flick response latencies.
Spinal cords were dounce-homogenized (18 strokes) in 10 volumes of 10 mM Tris-Cl (pH 7.4), 320 mM Sucrose, and 1% SDS. The tissue homogenates were centrifuged at 21,000×g at 4° C. for 5 min. Equal amounts of protein from tissue samples were separated by 4-12% gradient SDS-PAGE (Invitrogen), followed by Western blotting with anti-MOR-1 (1:1000), anti-pCREB (1:1000) (Santa Cruz Biotechnology) or anti-phosphoserine antibody (for immunoprecipitated samples, 1:1000) (Sigma) followed by revelation with ECL (Amersham). Membranes (BioTrace PVDF, Pall Co.) were routinely stripped and re-probed with a monoclonal antibody for actin (1:5000, Sigma) blotting to ensure equal protein loading.

[3] = test system: substantia gelatiosa (SG) neurons in lamina II of the dorsal horn; assay: Whole-cell patch clamp recording of sIPSCs in spinal cord slices; type: cell-based, mouse
Description: Postnatal mice (12-19 days old) were anesthetized with 1-2% halothane and the thoracic and lumbar spinal cord were dissected out and put into pre-equilibrated artificial cerebrospinal solution fluid (ACSF) at 1-4° C. The spinal cord was placed into the shallow groove of an agar block, and several drops of 20% gelatin were placed on the low-thoracic and high-lumbar segment to half-embed the spinal cord. The agar block, together with the half-embedded spinal cord, was glued on the stage of a vibratome with cyanoacrylate adhesive, and was immersed in the ice-cold ACSF. Then, transverse slices of the lumber spinal cord (350 μm) were prepared. Slices were transferred to a room temperature submerged recovery chamber with oxygenated (95% O2 and 5% CO2) solution containing (in mM): NaCl, 124; NaHCO3, 25; KCl, 4.4; KH2PO4, 1; CaCl2, 2; MgSO4, 2; glucose, 10. After one hr recovery, slices were placed in a recording chamber on the stage of an Axioskop 2FS microscope (Zeiss) equipped with infrared DIC optics for patch clamp recordings. Substantia gelatiosa (SG) could be identified as a translucent band capping the dorsal part of the gray matter under the microscope. Spontaneous inhibitory postsynaptic currents (sIPSCs) were recorded with an Axon 200B amplifier (Axon Instruments, CA). Recording electrodes (3-5 MΩ) contained a pipette solution composed of (in mM): Cs-gluconate, 120; NaCl, 5; MgCl2 1; EGTA, 0.5; Mg-ATP, 2; Na3GTP, 0.1; HEPES, 10; pH 7.2; 280-300 mOsmol. Access resistance was 15-30 MΩ and was monitored throughout the experiment. Data were discarded if access resistance changed more than 15% during an experiment. The membrane potential was held at […] throughout the experiment. A holding potential of +10 mV was used to record spontaneous inhibitory postsynaptic currents (sIPSCs).

[4] = test system: pCREB in lamina I-II of the dorsal horn; assay: pCREB immunostaining in spinal cord after chronic morphine; type: in vivo, mouse; settings: chronic morphine vs saline; both CaMKIV KO and wild-type mice; p<0.001
Description: Spinal cord slices at the lumbar region were prepared using standard histological methods. Slices were incubated with rabbit anti-pCREB IgG (1:250) (Calbiochem) or rabbit anti-MOR IgG (1:500) (ImmunoStar Incorporated) at 4° C. overnight. Followed by donkey anti-rabbit IgG conjugated with Alexa 488 (1:500) (Molecular Probes) for one hour at room temperature. Measurements were made from at least three randomly selected non-contiguous sections in each mouse (3-4 mice per treatment group), observed from coded slides and averaged so that each animal has a mean value for regional immunoreactivity. The total number and density of positive cells were measured in dorsal horn layers I-II and ventral horn layers VI-IX. All data were expressed as a ratio between cell number or density and unit area. Images were obtained with an Olympus microscope. Data were analyzed with ImagePro software (Media-Cybrenetics,).

[5] = test system: CREB activity in HEK293 cells expressing CaMKIV; assay: Ionomycin stimulation of CREB activity (luciferase reporter) in HEK293 cells expressing CaMKIV; type: cell-based; settings: 5 μM ionomycin, n=4 wells, p<0.0001
Description: as §1
as §2, with “The CREB activity is 5.5±0.2 times that of unstimulated cells (p<0.0001, compared to the unstimulated cells, n=4 wells, FIG. 8A).” left out

Compound: sequence 1: siRNA for mouse CaMKIV: sense 5′-GCAUGAUAUGCACUAAUAGtt-3′, antisense 5′-CUAUUAGUGCAUAUCAUGCtt-3′ (sense GCAUGAUAUGCACUAAUAGTT; antisense CUAUUAGUGCAUAUCAUGCTT; chemistry not given here)
- expression level of CaMKIV, % of the control (mouse CaMKIV): 50.6±5.9%

Compound: sequence 2: siRNA for mouse CaMKIV: sense 5′-CGGCUGACUACAUUUCAAGtt-3′, antisense 5′-CUUGAAAUGUAGUCAGCCGtt-3′ (sense CGGCUGACUACAUUUCAAGTT; antisense CUUGAAAUGUAGUCAGCCGTT; chemistry not given here)
- knock down of the expression of CaMKIV (in words) (mouse CaMKIV): could not knock down

Compound: COc1ccc(S(=O)(=O)N(CCO)c2ccccc2CN(C)CC=Cc2ccc(Cl)cc2)cc1 [KN93, N-[2-[[[3-(4-Chlorophenyl)-2-propenyl]methylamino]methyl]phenyl]-N-(2-hydroxyethyl)-4-methoxybenzenesulphonamide]
- CREB activity, % of the control level ([1]; 0.01 μM inhibitor): 93.1±0.9%
- CREB activity, % of the control level ([1]; 0.1 μM inhibitor): 77.7±2.5%
- CREB activity, % of the control level ([1]; 1.0 μM inhibitor): 40.8±2.7%
- CREB activity, % of the control level ([1]; 10 μM inhibitor): 5.3±1.5%
- CREB activity, % of the control level ([1]; 50 μM inhibitor): 1.3±0.7%
- CREB activity, % of the control level ([1]; 100 μM inhibitor): 1.1±0.9%
- IC50 [1]: 580 nM

Compound: CN1CC[C@]23c4c5ccc(O)c4O[C@H]2[C@@H](O)C=C[C@H]3[C@H]1C5 [morphine]
- pCREB expression in spinal cord (western blot) ([2]; CaMKIV KO mice): absent
- pCREB expression in spinal cord (western blot) ([2]; WT mice, p<0.001): significantly increased
- decrease of the frequency of sIPSCs ([3]; acutely applied morphine, CaMKIV KO mice, n=6): 66.2±4.0%
- decrease of the frequency of sIPSCs ([3]; acutely applied morphine, WT mice, n=7): 68.9±10.4%
- decrease of the frequency of sIPSCs ([3]; slices pre-incubated in morphine at least 1 hour, CaMKIV KO mice, n=9): 55.7±6.9%
- decrease of sIPSCs (in words) ([3]; slices pre-incubated in morphine at least 1 hour, WT mice, n=8, p>0.05): did not decrease
- pCREB in layer I and II of the dorsal horn (immunostaining) [4]: significantly increased

Compound: C[C@H](CCC(=O)O)C[C@H](C)C[C@H](C)C(=O)/C=C(\O)[C@H](C)C[C@H](C)C/C=C/[C@@H](C)[C@@H](O)[C@@H](C)[C@@H](O)C[C@@H]1CC[C@@](C)([C@H]2CC[C@@](C)([C@@H](C)O)O2)O1 [Ionomycin, ionomycin]
- CREB activity, times that of unstimulated cells [5]: 5.5±0.2 times

Compound: CN([C@@H](Cc1ccc(OS(=O)(=O)c2cccc3cnccc23)cc1)C(=O)N1CCN(c2ccccc2)CC1)S(=O)(=O)c1cccc2cnccc12 [KN62, 4-[(25)-2-[(5-isoquinolinylsulfonyl)methylamino]-3-oxo-3-(4-phrenyl-1-piperazinyl)propyl]phenyl isoquinolinesulfonic acid ester]
- CREB activity, % of the control level ([1]; 0.01 μM inhibitor): 98.4±0.8%
- CREB activity, % of the control level ([1]; 0.1 μM inhibitor): 85.3±1.2%
- CREB activity, % of the control level ([1]; 1.0 μM inhibitor): 55.5±2.5%
- CREB activity, % of the control level ([1]; 10 μM inhibitor): 11.5±2.6%
- CREB activity, % of the control level ([1]; 50 μM inhibitor): 1.3±2.9%
- CREB activity, % of the control level ([1]; 100 μM inhibitor): 1.2±1.4%
- IC50 [1]: 1060 nM
